Data taken from PubChem BioAssay (NCI).
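Tested at 5 concentrations; 48 h exposure; 96-well plates; endpoints linearly interpolated, else capped at highest concentration. At the TGI there is no net growth.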

Key:
Assay in all cases: NCI tumour cell line growth inhibition, 48 h
786-0 renal = tested on: 786-0 renal
NCI-H226 lung = tested on: NCI-H226 lung
OVCAR-5 ovarian = tested on: OVCAR-5 ovarian
M14 melanoma = tested on: M14 melanoma
HCT-116 colon = tested on: HCT-116 colon
IGROV1 ovarian = tested on: IGROV1 ovarian
HOP-92 NSCLC = tested on: HOP-92 NSCLC
DMS 273 small cell lung = tested on: DMS 273 small cell lung
RPMI-8226 leukemia = tested on: RPMI-8226 leukemia
NCI-H460 lung = tested on: NCI-H460 lung
A549 NSCLC = tested on: A549 NSCLC
UACC-62 melanoma = tested on: UACC-62 melanoma
NCI-H522 lung = tested on: NCI-H522 lung
HOP-62 NSCLC = tested on: HOP-62 NSCLC
SK-MEL-5 melanoma = tested on: SK-MEL-5 melanoma
SW-620 colon = tested on: SW-620 colon
XF 498 CNS = tested on: XF 498 CNS
KM12 colon = tested on: KM12 colon
K-562 leukemia = tested on: K-562 leukemia
MOLT-4 leukemia = tested on: MOLT-4 leukemia
HCC-2998 colon = tested on: HCC-2998 colon
CCRF-CEM leukemia = tested on: CCRF-CEM leukemia
NCI-H23 lung = tested on: NCI-H23 lung
SF-295 CNS = tested on: SF-295 CNS
HCT-15 colon = tested on: HCT-15 colon
SNB-78 CNS = tested on: SNB-78 CNS
ACHN renal = tested on: ACHN renal
SK-MEL-28 melanoma = tested on: SK-MEL-28 melanoma
MALME-3M melanoma = tested on: MALME-3M melanoma
COLO 205 colon = tested on: COLO 205 colon
SN12C renal = tested on: SN12C renal
TK-10 renal = tested on: TK-10 renal
LXFL 529 NSCLC = tested on: LXFL 529 NSCLC
KM20L2 colon = tested on: KM20L2 colon
A498 renal = tested on: A498 renal
SF-539 CNS = tested on: SF-539 CNS
HL-60(TB) leukemia = tested on: HL-60(TB) leukemia
SNB-19 CNS = tested on: SNB-19 CNS
RXF-631 renal = tested on: RXF-631 renal
RXF 393 renal = tested on: RXF 393 renal
U251 CNS = tested on: U251 CNS
OVCAR-4 ovarian = tested on: OVCAR-4 ovarian
DLD-1 colon = tested on: DLD-1 colon
M19-MEL melanoma = tested on: M19-MEL melanoma
OVCAR-8 ovarian = tested on: OVCAR-8 ovarian
UACC-257 melanoma = tested on: UACC-257 melanoma
HT29 colon = tested on: HT29 colon
HOP-18 NSCLC = tested on: HOP-18 NSCLC
SR leukemia = tested on: SR leukemia
OVCAR-3 ovarian = tested on: OVCAR-3 ovarian
CAKI-1 renal = tested on: CAKI-1 renal
LOX IMVI melanoma = tested on: LOX IMVI melanoma
SF-268 CNS = tested on: SF-268 CNS
DMS 114 small cell lung = tested on: DMS 114 small cell lung
UO-31 renal = tested on: UO-31 renal
SK-OV-3 ovarian = tested on: SK-OV-3 ovarian
SNB-75 CNS = tested on: SNB-75 CNS

Measured: TGI

OCC1OC(NO)C(O)C(O)C1O (configuration not stated)
not listed: DMS 114 small cell lung | UO-31 renal | SK-OV-3 ovarian | SNB-75 CNS
> 100 µM: all other assays above

CCC(/C(=N/NC(=O)C[N+](C)(C)C)c1ccccc1)C1OC(=O)c2ccccc21 (configuration not stated)
not listed: A498 renal | DLD-1 colon | HOP-18 NSCLC
> 100 µM: all other assays above
